± gives the expanded uncertainty stated by the source.
Legend:
[1] = Liquid; for Critical pressure: Direct measurement; for Critical temperature: Visual observation in an unstirred cell
[2] = xn = mol fraction of the nth substance listed; conditions: Liquid

FC(OC(F)(F)F)C(F)(F)F (stereo not drawn) [1,1,1,2-tetrafluoro-2-(trifluoromethoxy)ethane]
Critical density [1]: 580 ± 4 kg/m3
Critical pressure [1]: 2621 ± 4 kPa
Critical temperature [1]: 377.26 ± 0.06 K

FC(OC(F)(F)F)C(F)(F)F (stereo not drawn) [1,1,1,2-tetrafluoro-2-(trifluoromethoxy)ethane] + COC(F)(F)C(F)(F)F
Critical density ([2]; x1 = 0.1694): 510 ± 6 kg/m3
Critical density ([2]; x1 = 0.2941): 521 ± 6 kg/m3
Critical density ([2]; x1 = 0.4706): 536 ± 6 kg/m3
Critical density ([2]; x1 = 0.6565): 554 ± 6 kg/m3
Critical density ([2]; x1 = 0.7952): 566 ± 7 kg/m3
Critical density ([2]; x1 = 1): 580 ± 7 kg/m3

FC(OC(F)(F)F)C(F)(F)F (stereo not drawn) [1,1,1,2-tetrafluoro-2-(trifluoromethoxy)ethane] + COC(F)(F)F
Critical density ([2]; x1 = 0.1455): 480 ± 6 kg/m3
Critical density ([2]; x1 = 0.2585): 506 ± 6 kg/m3
Critical density ([2]; x1 = 0.4147): 523 ± 6 kg/m3
Critical density ([2]; x1 = 0.5954): 539 ± 6 kg/m3
Critical density ([2]; x1 = 0.7403): 558 ± 7 kg/m3
Critical density ([2]; x1 = 1): 580 ± 7 kg/m3

COC(F)(F)C(F)(F)F [methyl pentafluoroethyl ether]
Critical density [1]: 491 ± 6 kg/m3
Critical pressure [1]: 2885 ± 6 kPa
Critical temperature [1]: 406.82 ± 0.06 K

COC(F)(F)C(F)(F)F [methyl pentafluoroethyl ether] + FC(OC(F)(F)F)C(F)(F)F
Critical density ([2]; x2 = 0): 491 ± 6 kg/m3

COC(F)(F)F [trifluoromethoxymethane]
Critical density [1]: 459 ± 5 kg/m3
Critical pressure [1]: 3640 ± 6 kPa
Critical temperature [1]: 377.92 ± 0.06 K

COC(F)(F)F [trifluoromethoxymethane] + FC(OC(F)(F)F)C(F)(F)F
Critical density ([2]; x2 = 0): 459 ± 5 kg/m3
